Measurements taken from PubChem BioAssay AID2060332 (Molecular Pharmacology Branch, DTP, NCI, 2025).
Several values for one entry are separate records, joined by “and”; a condition that tells them apart may be missing. Equal entries are not always repeated. Values belong to the compound of their own block, whether it stands above or below them.

Tested on: LG0567-F671-PDC multi-cell spheroid viability
Test: Anticancer human tumor LG0567-F671-PDC patient-derived lung adenocarcinoma cell line growth inhibition [IpAb]
Conditions: for viability, T/C: stronger effect = lower value
Summary of the method: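 Spheroids of 60% malignant cells, 25% HUVEC and 15% MSC were exposed to targeted agents combined with ipatasertib or abemaciclib. Doses started at or near clinical Cmax (10 microM when unknown) and fell in half-log steps.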

[1] = curve of first compound, second compound 0.1 µM
[2] = curve of first compound, second compound 0.316 µM
[3] = curve of first compound, second compound 1 µM
[4] = curve of first compound, second compound 3.16 µM
[5] = curve of first compound, second compound 10 µM
[6] = second compound 0.1 µM, first compound 0.0316 µM
[7] = second compound 0.1 µM, first compound 0.1 µM
[8] = second compound 0.1 µM, first compound 0.316 µM
[9] = second compound 0.1 µM, first compound 1 µM
[10] = second compound 0.1 µM, first compound 3.16 µM
[11] = second compound 0.1 µM, first compound 10 µM
[12] = second compound 0.316 µM, first compound 0.0316 µM
[13] = second compound 0.316 µM, first compound 0.1 µM
[14] = second compound 0.316 µM, first compound 0.316 µM
[15] = second compound 0.316 µM, first compound 1 µM
[16] = second compound 0.316 µM, first compound 3.16 µM
[17] = second compound 0.316 µM, first compound 10 µM
[18] = second compound 1 µM, first compound 0.0316 µM
[19] = second compound 1 µM, first compound 0.1 µM
[20] = second compound 1 µM, first compound 0.316 µM
[21] = second compound 1 µM, first compound 1 µM
[22] = second compound 1 µM, first compound 3.16 µM
[23] = second compound 1 µM, first compound 10 µM
[24] = second compound 0.1 µM, first compound 0.00949 µM
[25] = second compound 0.1 µM, first compound 0.03 µM
[26] = second compound 0.1 µM, first compound 0.0949 µM
[27] = second compound 0.1 µM, first compound 0.3 µM
[28] = second compound 0.316 µM, first compound 0.00949 µM
[29] = second compound 0.316 µM, first compound 0.03 µM
[30] = second compound 0.316 µM, first compound 0.0949 µM
[31] = second compound 0.316 µM, first compound 0.3 µM
[32] = second compound 1 µM, first compound 0.00949 µM
[33] = second compound 1 µM, first compound 0.03 µM
[34] = second compound 1 µM, first compound 0.0949 µM
[35] = second compound 1 µM, first compound 0.3 µM
[36] = second compound 3.16 µM, first compound 0.00949 µM
[37] = second compound 3.16 µM, first compound 0.03 µM
[38] = second compound 3.16 µM, first compound 0.0949 µM
[39] = second compound 3.16 µM, first compound 0.3 µM
[40] = second compound 10 µM, first compound 0.00949 µM
[41] = second compound 10 µM, first compound 0.03 µM
[42] = second compound 10 µM, first compound 0.0949 µM
[43] = second compound 10 µM, first compound 0.3 µM
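Note: viability read after 7 days of drug exposure.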
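Throughout, for viability, T/C: 100% = DMSO vehicle control luminescence.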

SMILES: C=CC(=O)N1CCN(c2nc(=O)n(-c3c(C)ccnc3C(C)C)c3nc(-c4c(O)cccc4F)c(F)cc23)C(C)C1 (centres undefined) + CC(C)NCC(C(=O)N1CCN(c2ncnc3c2C(C)CC3O)CC1)c1ccc(Cl)cc1
IC50 [1]: < 31.6 nM
IC50 [2]: < 31.6 nM
IC50 [3]: < 31.6 nM
IC50 [4]: < 31.6 nM
IC50 [5]: < 31.6 nM
viability, T/C [6]: 20%
viability, T/C [7]: 15.1%
viability, T/C [8]: 15.1%
viability, T/C [9]: 14.7%
viability, T/C [10]: 15.9%
viability, T/C [11]: 16.6%
viability, T/C [12]: 12.9%
viability, T/C [13]: 16.1%
viability, T/C [14]: 15.5%
viability, T/C [15]: 14.8%
viability, T/C [16]: 8.74%
viability, T/C [17]: 9.44%
viability, T/C [18]: 13.8%
viability, T/C [19]: 13.9%
viability, T/C [20]: 13.1%
viability, T/C [21]: 10.5%
viability, T/C [22]: 10.2%
viability, T/C [23]: 8.39%
viability, T/C (second compound 3.16 µM, first compound 0.0316 µM): 14.9%
viability, T/C (second compound 3.16 µM, first compound 0.1 µM): 15.8%
viability, T/C (second compound 3.16 µM, first compound 0.316 µM): 11.4%
viability, T/C (second compound 3.16 µM, first compound 1 µM): 10.6%
viability, T/C (second compound 3.16 µM, first compound 3.16 µM): 10.4%
viability, T/C (second compound 3.16 µM, first compound 10 µM): 10.6%
viability, T/C (second compound 10 µM, first compound 0.0316 µM): 13.5%
viability, T/C (second compound 10 µM, first compound 0.1 µM): 11%
viability, T/C (second compound 10 µM, first compound 0.316 µM): 10.1%
viability, T/C (second compound 10 µM, first compound 1 µM): 10%
viability, T/C (second compound 10 µM, first compound 3.16 µM): 12.5%
viability, T/C (second compound 10 µM, first compound 10 µM): 9.01%

IC50 (curve of compound): 173 nM and 140 nM
SMILES: CC(C)(C)c1cnc(CSc2cnc(NC(=O)C3CCNCC3)s2)o1
viability, T/C (compound 0.00949 µM): 110% and 111%
viability, T/C (compound 0.03 µM): 113% and 95.4%
viability, T/C (compound 0.0949 µM): 97.6% and 73.8%
viability, T/C (compound 0.3 µM): 6.76% and 3.49%
viability, T/C (compound 0.949 µM): 2.03% and 1.44%
viability, T/C (compound 3 µM): 0.9% and 0.89%

IC50 (curve of compound): 2470 nM and 1660 nM
SMILES: Cn1ncc(Cl)c1-c1cc(C(=O)NC(CN)Cc2cccc(F)c2)sc1Cl (centres undefined)
viability, T/C (compound 0.0316 µM): 111% and 97.3%
viability, T/C (compound 0.1 µM): 93% and 66%
viability, T/C (compound 0.316 µM): 52.6% and 62.1%
viability, T/C (compound 1 µM): 82.9% and 63%
viability, T/C (compound 3.16 µM): 53% and 45.6%
viability, T/C (compound 10 µM): 0.27% and 0.21%

SMILES: Cn1cnc2c(F)c(Nc3ccc(Br)cc3Cl)c(C(=O)NOCCO)cc21 + CC(C)NCC(C(=O)N1CCN(c2ncnc3c2C(C)CC3O)CC1)c1ccc(Cl)cc1
IC50 [1]: 15.7 nM
IC50 [2]: < 9.49 nM
IC50 [3]: < 9.49 nM
IC50 [4]: < 9.49 nM
IC50 [5]: < 9.49 nM
viability, T/C [24]: 59.6%
viability, T/C [25]: 36.4%
viability, T/C [26]: 29.3%
viability, T/C [27]: 18.2%
viability, T/C (second compound 0.1 µM, first compound 0.949 µM): 18.6%
viability, T/C (second compound 0.1 µM, first compound 3 µM): 11.1%
viability, T/C [28]: 43.4%
viability, T/C [29]: 32.4%
viability, T/C [30]: 23.2%
viability, T/C [31]: 18%
viability, T/C (second compound 0.316 µM, first compound 0.949 µM): 14.3%
viability, T/C (second compound 0.316 µM, first compound 3 µM): 5.52%
viability, T/C [32]: 34.6%
viability, T/C [33]: 32.3%
viability, T/C [34]: 23.9%
viability, T/C [35]: 21.3%
viability, T/C (second compound 1 µM, first compound 0.949 µM): 10.7%
viability, T/C (second compound 1 µM, first compound 3 µM): 8.24%
viability, T/C [36]: 44.9%
viability, T/C [37]: 43.4%
viability, T/C [38]: 36.4%
viability, T/C [39]: 16.4%
viability, T/C (second compound 3.16 µM, first compound 0.949 µM): 14.8%
viability, T/C (second compound 3.16 µM, first compound 3 µM): 7.66%
viability, T/C [40]: 43.4%
viability, T/C [41]: 28.7%
viability, T/C [42]: 26.7%
viability, T/C [43]: 21.5%
viability, T/C (second compound 10 µM, first compound 0.949 µM): 11.9%
viability, T/C (second compound 10 µM, first compound 3 µM): 8.12%

SMILES: CC1(C)CCC(CN2CCN(c3ccc(C(=O)NS(=O)(=O)c4ccc(NCC5CCOCC5)c([N+](=O)[O-])c4)c(Oc4cnc5[nH]ccc5c4)c3)CC2)=C(c2ccc(Cl)cc2)C1 + CCN1CCN(Cc2ccc(Nc3ncc(F)c(-c4cc(F)c5nc(C)n(C(C)C)c5c4)n3)nc2)CC1
IC50 (curve of first compound, second compound 0.01 µM): 7190 nM
IC50 (curve of first compound, second compound 0.0316 µM): 5800 nM
IC50 [1]: 5910 nM
IC50 [2]: 4880 nM
IC50 [3]: 4690 nM
viability, T/C (second compound 0.01 µM, first compound 0.0316 µM): 96.5%
viability, T/C (second compound 0.01 µM, first compound 0.1 µM): 123%
viability, T/C (second compound 0.01 µM, first compound 0.316 µM): 106%
viability, T/C (second compound 0.01 µM, first compound 1 µM): 105%
viability, T/C (second compound 0.01 µM, first compound 3.16 µM): 119%
viability, T/C (second compound 0.01 µM, first compound 10 µM): 25.9%
viability, T/C (second compound 0.0316 µM, first compound 0.0316 µM): 63.6%
viability, T/C (second compound 0.0316 µM, first compound 0.1 µM): 95.8%
viability, T/C (second compound 0.0316 µM, first compound 0.316 µM): 87.1%
viability, T/C (second compound 0.0316 µM, first compound 1 µM): 72.2%
viability, T/C (second compound 0.0316 µM, first compound 3.16 µM): 83.2%
viability, T/C (second compound 0.0316 µM, first compound 10 µM): 22.6%
viability, T/C [6]: 80.5%
viability, T/C [7]: 86.9%
viability, T/C [8]: 83.2%
viability, T/C [9]: 84.5%
viability, T/C [10]: 83%
viability, T/C [11]: 22.2%
viability, T/C [12]: 69.6%
viability, T/C [13]: 76.1%
viability, T/C [14]: 80.8%
viability, T/C [15]: 76.9%
viability, T/C [16]: 73.3%
viability, T/C [17]: 11.4%
viability, T/C [18]: 69.6%
viability, T/C [19]: 80.3%
viability, T/C [20]: 64%
viability, T/C [21]: 68.8%
viability, T/C [22]: 67.1%
viability, T/C [23]: 17.5%

SMILES: CC(=O)c1c(C)c2cnc(Nc3ccc(N4CCNCC4)cn3)nc2n(C2CCCC2)c1=O + CC(C)NCC(C(=O)N1CCN(c2ncnc3c2C(C)CC3O)CC1)c1ccc(Cl)cc1
IC50 [1]: > 300 nM
IC50 [2]: > 300 nM
IC50 [3]: > 300 nM
IC50 [4]: > 300 nM
IC50 [5]: > 300 nM
viability, T/C (second compound 0.1 µM, first compound 0.000949 µM): 89.3%
viability, T/C (second compound 0.1 µM, first compound 0.003 µM): 84.7%
viability, T/C [24]: 68.9%
viability, T/C [25]: 69.5%
viability, T/C [26]: 67.7%
viability, T/C [27]: 75.6%
viability, T/C (second compound 0.316 µM, first compound 0.000949 µM): 66.5%
viability, T/C (second compound 0.316 µM, first compound 0.003 µM): 71.5%
viability, T/C [28]: 69.7%
viability, T/C [29]: 61.3%
viability, T/C [30]: 58.1%
viability, T/C [31]: 62.5%
viability, T/C (second compound 1 µM, first compound 0.000949 µM): 76.3%
viability, T/C (second compound 1 µM, first compound 0.003 µM): 73.6%
viability, T/C [32]: 78.9%
viability, T/C [33]: 66%
viability, T/C [34]: 63.1%
viability, T/C [35]: 75.2%
viability, T/C (second compound 3.16 µM, first compound 0.000949 µM): 61.2%
viability, T/C (second compound 3.16 µM, first compound 0.003 µM): 80.1%
viability, T/C [36]: 74.2%
viability, T/C [37]: 69.1%
viability, T/C [38]: 68.4%
viability, T/C [39]: 69.2%
viability, T/C (second compound 10 µM, first compound 0.000949 µM): 71.7%
viability, T/C (second compound 10 µM, first compound 0.003 µM): 84.8%
viability, T/C [40]: 79.3%
viability, T/C [41]: 59.6%
viability, T/C [42]: 60.3%
viability, T/C [43]: 58.4%
